Assay results reported in ChEMBL document CHEMBL1795319, “Design, synthesis and antifungal evaluation of 1-(2-(2,4-difluorophenyl)-2-hydroxy-3-(1H-1,2,4-triazol-1-yl)propyl)-1H-1,2,4-triazol-5(4H)-one” (2011).
≈ marks a conversion by molar mass, not a printed value.

What was measured:
Type in all cases: functional
Aspergillus fumigatus = assay: Antifungal activity against Aspergillus fumigatus by broth microdilution method
Candida tropicalis = assay: Antifungal activity against Candida tropicalis by micro-broth dilution method
Candida parapsilosis = assay: Antifungal activity against Candida parapsilosis by micro-broth dilution method; conditions: Lodderomyces parapsilosis
Cryptococcus neoformans = assay: Antifungal activity against Cryptococcus neoformans BLS108 after 72 hrs by micro-broth dilution method; conditions: BLS108, 72 h
Trichophyton rubrum = assay: Antifungal activity against Trichophyton rubrum by micro-broth dilution method
Kluyveromyces marxianus = assay: Antifungal activity against Candida kefyr by micro-broth dilution method
Candida albicans [1] = assay: Antifungal activity against Candida albicans Y0109 after 24 hrs by micro-broth dilution method; conditions: Y0109, 24 h
Candida albicans [2] = assay: Antifungal activity against Candida albicans SC5314 after 24 hrs by micro-broth dilution method; conditions: SC5314, 24 h

- MIC80 (Aspergillus fumigatus): > 64 µg/mL
- MIC80 (Candida tropicalis): 64 µg/mL (≈ 155 µM)
- MIC80 (Candida parapsilosis): 4 µg/mL (≈ 9.68 µM)
- MIC80 (Cryptococcus neoformans): 16 µg/mL (≈ 38.7 µM)
- MIC80 (Trichophyton rubrum): 16 µg/mL (≈ 38.7 µM)
- MIC80 (Kluyveromyces marxianus): 4 µg/mL (≈ 9.68 µM)
- MIC80 (Candida albicans [1]): 4 µg/mL (≈ 9.68 µM)
- MIC80 (Candida albicans [2]): 4 µg/mL (≈ 9.68 µM)
SMILES: Cc1ccc(-n2cnn(CC(O)(Cn3cncn3)c3ccc(F)cc3F)c2=O)nc1 (racemic)
